Data reported in patent publication US20070026080A1, “Manufacturing process for tigecycline” (Wyeth, priority 2005, published 2007).

Experiment: Strength and degradation profile of tigecycline 20 mg/mL bulk solutions by reversed phase HPLC (effect of temperature, time, pH, dissolved oxygen; Runs A to O)
Assay type: physicochemical
Settings: 20 mg/mL
Method: The contents of the sample vials are dissolved in diluent. The sample solution is diluted, if necessary, and chromatographed on a reversed phase column using gradient elution. Impurities are determined by comparing the impurity peak areas in the sample preparation chromatogram to the average area of tigecycline peaks in the standard preparation chromatograms obtained concomitantly.
Chromatographic Column—Length about 15 cm, inside diameter about 4.6 mm, packed with Inertsil ODS2, 5 μm size particles or equivalent.
Detector—Ultraviolet spectrophotometric detector capable of operating at 248 nm with a sensitivity of about 0.5 absorbance units full scale.
The results of additional studies to investigate the effect of processing parameters such as temperature, time, and dissolved oxygen content on the purity profile of tigecycline solutions using the following materials, methods and procedures are presented in Tables A to O.
The experiments were run in plastic glove bags under normal laboratory light conditions. Plastic glove boxes will be used to control the headspace of the beakers. The batch size was 200 mL. • 1. Prepare the glove bag with a mixture of nitrogen and air to achieve an oxygen level in the solution as per the design. • 2. Place the jacketed beaker on the magnetic stirrer. Connect it to the cooler. Set the cooler to the desired set point. • 3. Add 200 mL of SWFI in to the beaker. Allow equilibrating. Measure the temperature and oxygen content. When it reaches the desired condition, add accurately weighed API and mix until dissolved. If necessary use spatula to aid dissolution. For pH adjustments, use 4 mL of either 0.1N NaOH or 0.1N HCl and 196 mL of WFI for manufacture. • 4. After complete dissolution, Transfer about 5.5 mL of Solution in vials and stopper them. These vials will be stoppered at the appropriate headspace conditions. Place the vials in appropriate temperature conditions. • 5. Sample the vials at 1, 4, 8, 10, 12 and 24 hours. Send the samples for analysis. Freeze the 10, 12 and 24 samples at −20° C. for analysis the following day. • 6. Measure pH and record color of the solution at each time point. Results
The 1-hour samples were taken directly from the beakers. Samples for later time points were collected in stoppered vials processed in the atmosphere of the bag in order to simulate the headspace conditions then placed in water baths or refrigerator to maintain there respective temperature conditions. This was done to maintain safety in the lab. Disposable plastic glove bags require constant flow of a mixture of nitrogen and air to maintain headspace oxygen level that will result in the desired dissolved oxygen (DO) content in the sample. The pH of samples was measured at each sample points.
Strength and degradation profile was analyzed by HPLC as described above. […] Degradation was slightly higher at higher temperature condition.

[1] = Run #I, 5° C., pH 7.9, Oxygen 1.0 mg/L, hours 1,4,8,10,12,24 at r6-r11, 24 h
[2] = Run #I, 5° C., pH 7.9, Oxygen 1.0 mg/L, hours 1,4,8,10,12,24 at r17-r22
[3] = Run #I, 5° C., pH 7.9, Oxygen 1.0 mg/L, hours 1,4,8,10,12,24 at r17-r22, 1 h
[4] = Run #I, 5° C., pH 7.9, Oxygen 1.0 mg/L, hours 1,4,8,10,12,24 at r17-r22, 4 h
[5] = Run #I, 5° C., pH 7.9, Oxygen 1.0 mg/L, hours 1,4,8,10,12,24 at r17-r22, 8 h
[6] = Run #I, 5° C., pH 7.9, Oxygen 1.0 mg/L, hours 1,4,8,10,12,24 at r17-r22, 10 h
[7] = Run #I, 5° C., pH 7.9, Oxygen 1.0 mg/L, hours 1,4,8,10,12,24 at r17-r22, 24 h
[8] = Run #J, 8° C., Oxygen = 1.0 mg/mL, hours 1,4,8,12,24 at r6-r10, 1 hours
[9] = Run #J, 8° C., Oxygen = 1.0 mg/mL, hours 1,4,8,12,24 at r6-r10, 4 hours
[10] = Run #J, 8° C., Oxygen = 1.0 mg/mL, hours 1,4,8,12,24 at r6-r10, 8 hours
[11] = Run #J, 8° C., Oxygen = 1.0 mg/mL, hours 1,4,8,12,24 at r6-r10, 12 hours
[12] = Run #J, 8° C., Oxygen = 1.0 mg/mL, hours 1,4,8,12,24 at r6-r10, 24 hours
[13] = Run #J, 8° C., hours 1,4,8,12,24 at r6-r10, 1 hours
[14] = Run #J, 8° C., hours 1,4,8,12,24 at r6-r10, 4 hours
[15] = Run #J, 8° C., hours 1,4,8,12,24 at r6-r10, 8 hours
[16] = Run #J, 8° C., hours 1,4,8,12,24 at r6-r10, 12 hours
[17] = Run #J, 8° C., hours 1,4,8,12,24 at r6-r10, 24 hours
[18] = Run #K, 2° C., pH 8.2, Oxygen 0.1 mg/L, hours 1,4,8,10,12,24 at r6-r11
[19] = Run #K, 2° C., pH 8.2, Oxygen 0.1 mg/L, hours 1,4,8,10,12,24 at r6-r11, after 1 hours
[20] = Run #K, 2° C., pH 8.2, Oxygen 0.1 mg/L, hours 1,4,8,10,12,24 at r6-r11, after 4 hours
[21] = Run #K, 2° C., pH 8.2, Oxygen 0.1 mg/L, hours 1,4,8,10,12,24 at r6-r11, after 8 hours
[22] = Run #K, 2° C., pH 8.2, Oxygen 0.1 mg/L, hours 1,4,8,10,12,24 at r6-r11, after 10 hours
[23] = Run #K, 2° C., pH 8.2, Oxygen 0.1 mg/L, hours 1,4,8,10,12,24 at r6-r11, after 12 hours

Structure (SMILES): CN(C)c1cc(NC(=O)CNC(C)(C)C)c(O)c2c1C[C@H]1C[C@H]3[C@H](N(C)C)C(O)=C(C(N)=O)C(=O)[C@@]3(O)C(O)=C1C2=O [Tigecycline]
- Strength (Run #I, 5° C., pH 7.9, Oxygen 1.0 mg/L, hours 1,4,8,10,12,24 at r6-r11, 12 h): 19.151 mg/mL
- RRT 0.58 [1]: 0.10%
- RRT 0.74 Epimer [1]: 0.23%
- Strength [1]: 19.242 mg/mL
- RRT 0.78 MW = 557 [2]: BRL (BRL means below reporting limit (meaning less than 0.05% of tigecycline peak))
- RRT 1.12 [2]: BRL (BRL means below reporting limit (meaning less than 0.05% of tigecycline peak))
- RRT 1.64 Mino [3]: 0.13%
- RRT 1.85 MW = 597 [3]: 0.06%
- Total [3]: 0.54%
- RRT 1.64 Mino [4]: 0.10%
- RRT 1.85 MW = 597 [4]: 0.09%
- RRT 1.64 Mino [5]: 0.09%
- RRT 1.85 MW = 597 [5]: 0.08%
- Total [5]: 0.53%
- RRT 1.64 Mino [6]: 0.08%
- RRT 1.85 MW = 597 [6]: 0.10%
- Total [6]: 0.98%
- Total (Run #I, 5° C., pH 7.9, Oxygen 1.0 mg/L, hours 1,4,8,10,12,24 at r17-r22, 12 h): 0.71%
- RRT 1.64 Mino [7]: 0.11%
- Total [7]: 0.96%
- RRT 1.67 MW = 556 [8]: 0.09%
- Strength [8]: 19.515 mg/mL
- RRT 1.67 MW = 556 [9]: 0.17%
- Strength [9]: 19.469 mg/mL
- RRT 1.67 MW = 556 [10]: 0.15%
- Strength [10]: 19.323 mg/mL
- RRT 1.67 MW = 556 [11]: 0.19%
- Strength [11]: 19.140 mg/mL
- RRT 1.67 MW = 556 [12]: 0.21%
- Strength [12]: 19.152 mg/mL
- RRT 0.58 [13]: 0.06%
- RRT 0.74 Epimer [13]: 0.20%
- RRT 1.45 [13]: 0.08%
- RRT 1.85 MW = 597 [13]: 0.09%
- Total [13]: 0.62%
- RRT 0.74 Epimer [14]: 0.22%
- RRT 1.45 [14]: 0.06%
- RRT 1.64 Mino [14]: 0.09%
- RRT 1.85 MW = 597 [14]: 0.08%
- Total [14]: 0.90%
- RRT 1.45 [15]: 0.07%
- Total [15]: 1.00%
- RRT 0.74 Epimer [16]: 0.24%
- RRT 1.64 Mino [16]: 0.10%
- RRT 1.85 MW = 597 [16]: 0.11%
- Total [16]: 1.17%
- RRT 0.58 [17]: 0.08%
- RRT 0.74 Epimer [17]: 0.28%
- RRT 1.45 [17]: 0.05%
- RRT 1.64 Mino [17]: 0.11%
- RRT 1.85 MW = 597 [17]: 0.10%
- Total [17]: 1.76%
- RRT 0.12 MW = 633 [18]: BRL (BRL means below reporting limit (meaning less than 0.05% of tigecycline peak))
- RRT 0.23 MW = 572 [18]: BRL (BRL means below reporting limit (meaning less than 0.05% of tigecycline peak))
- RRT 0.50 MW = 601 [18]: BRL (BRL means below reporting limit (meaning less than 0.05% of tigecycline peak))
- RRT 0.55 MW = 583 [18]: BRL (BRL means below reporting limit (meaning less than 0.05% of tigecycline peak))
- RRT 0.64 9-Amino [18]: BRL (BRL means below reporting limit (meaning less than 0.05% of tigecycline peak))
- RRT 0.78 MW = 557 [18]: BRL (BRL means below reporting limit (meaning less than 0.05% of tigecycline peak))
- RRT 1.12 [18]: BRL (BRL means below reporting limit (meaning less than 0.05% of tigecycline peak))
- RRT 1.58 [18]: BRL (BRL means below reporting limit (meaning less than 0.05% of tigecycline peak))
- RRT 1.67 MW = 556 [18]: BRL (BRL means below reporting limit (meaning less than 0.05% of tigecycline peak))
- RRT 0.74 Epimer [19]: 0.16%
- RRT 1.64 Mino [19]: 0.12%
- Strength [19]: 19.187 mg/mL
- Total [19]: 0.51%
- RRT 0.74 Epimer [20]: 0.18%
- RRT 1.64 Mino [20]: 0.13%
- Strength [20]: 19.324 mg/mL
- Total [20]: 0.61%
- RRT 0.58 [21]: 0.07%
- Strength [21]: 19.127 mg/mL
- Total [21]: 0.63%
- RRT 0.74 Epimer [22]: 0.19%
- RRT 1.64 Mino [22]: 0.15%
- RRT 1.85 MW = 597 [22]: 0.10%
- Strength [22]: 20.357 mg/mL
- Total [22]: 0.59%
- RRT 0.58 [23]: 0.08%
- RRT 0.74 Epimer [23]: 0.22%
- RRT 1.45 [23]: 0.09%
- RRT 1.64 Mino [23]: 0.10%
- RRT 1.85 MW = 597 [23]: 0.09%
- Strength [23]: 19.956 mg/mL
- Total [23]: 0.56%
